How the values were obtained:
wild-type LRRK2 = biological target: T1, wild-type LRRK2 (Homo sapiens, UniProt Q5S007); assay: detection of phosphorylated S935 in HEK293T overexpressing wild-type LRRK2; type: cell-based; conditions: pS935, HEK293T overexpressing wild-type LRRK2, 1.5 hours
T1 construct: pCMV-flag-WT LRRK2 (full-length); expressed in transfected cells; host or cells: HEK293T
Experimental: Detection of phosphorylated S935 in HEK293T Overexpressing full-length LRRK2 (G2019S) or wild-type LRRK2
HEK293T cells was inoculated into a 6-well plate and cultured overnight. The next day, they were transiently transfected with plasmid pcDNA5-FRT/TO-FLAG LRRK2 (G2019S, full-length) or pCMV-flag-WT LRRK2 (full-length) by using Superfect transfection reagent and cultured at 37°C and 5% CO2 for 20-24 hours. The next day, cells were collected, resuspended at a density of 0.48×10^6 cells/ml, and inoculated into a 384-well plate at 50 microliters/well. Compound or DMSO solutions (volume ratio of 0.5%) were added by Tecan, and cultured at 37°C and 5% CO2 for 1.5 hours. After 1.5 hours, the supernatant was discarded, 50 microliters of 8% PFA were added in each well to fix the cells, and the cells were incubated at room temperature for 1 hour. The plate was washed with EL406 plate washer for three times, with 115 microliters of PBST per well, and the culture plate was patted to dryness. The cells were blocked with 50 microliters/well of Licor Odyssey blocking solution (0.1% Tween 20) at room temperature for 1.5 hours. The blocking solution was discarded and the culture plate was patted to dryness. 20 microliters of primary antibody (1:1000(pS935), diluted with Licor Odyssey buffer (0.1% Tween20)) was added into each well, and incubated at 4 °C overnight. The next day, the first antibody was discarded and washing was performed with PBST for five times. 20 microliters of secondary antibody (diluted with Licor Odyssey buffer (0.1% Tween20) at 1:500 and stained with DNA at 1:2000) were added into each well, and incubated at room temperature for 1 hour. The second antibody was discarded, and washing was performed for three times with PBST. The fluorescence intensity was measured by LICOR Odyssey imager Scanner, and the data was analyzed.

JAK3 = biological target: T2, JAK3 (Mus musculus, UniProt Q62137); assay: JAKs cell activity test: JAK3_pSTAT5 in IL-2-induced CTLL-2 cells; type: cell-based; conditions: pSTAT5, IL-2-induced CTLL-2 cells
T2 construct: endogenous in cells; host or cells: CTLL-2
T2 sequence (Q62137 1-1100): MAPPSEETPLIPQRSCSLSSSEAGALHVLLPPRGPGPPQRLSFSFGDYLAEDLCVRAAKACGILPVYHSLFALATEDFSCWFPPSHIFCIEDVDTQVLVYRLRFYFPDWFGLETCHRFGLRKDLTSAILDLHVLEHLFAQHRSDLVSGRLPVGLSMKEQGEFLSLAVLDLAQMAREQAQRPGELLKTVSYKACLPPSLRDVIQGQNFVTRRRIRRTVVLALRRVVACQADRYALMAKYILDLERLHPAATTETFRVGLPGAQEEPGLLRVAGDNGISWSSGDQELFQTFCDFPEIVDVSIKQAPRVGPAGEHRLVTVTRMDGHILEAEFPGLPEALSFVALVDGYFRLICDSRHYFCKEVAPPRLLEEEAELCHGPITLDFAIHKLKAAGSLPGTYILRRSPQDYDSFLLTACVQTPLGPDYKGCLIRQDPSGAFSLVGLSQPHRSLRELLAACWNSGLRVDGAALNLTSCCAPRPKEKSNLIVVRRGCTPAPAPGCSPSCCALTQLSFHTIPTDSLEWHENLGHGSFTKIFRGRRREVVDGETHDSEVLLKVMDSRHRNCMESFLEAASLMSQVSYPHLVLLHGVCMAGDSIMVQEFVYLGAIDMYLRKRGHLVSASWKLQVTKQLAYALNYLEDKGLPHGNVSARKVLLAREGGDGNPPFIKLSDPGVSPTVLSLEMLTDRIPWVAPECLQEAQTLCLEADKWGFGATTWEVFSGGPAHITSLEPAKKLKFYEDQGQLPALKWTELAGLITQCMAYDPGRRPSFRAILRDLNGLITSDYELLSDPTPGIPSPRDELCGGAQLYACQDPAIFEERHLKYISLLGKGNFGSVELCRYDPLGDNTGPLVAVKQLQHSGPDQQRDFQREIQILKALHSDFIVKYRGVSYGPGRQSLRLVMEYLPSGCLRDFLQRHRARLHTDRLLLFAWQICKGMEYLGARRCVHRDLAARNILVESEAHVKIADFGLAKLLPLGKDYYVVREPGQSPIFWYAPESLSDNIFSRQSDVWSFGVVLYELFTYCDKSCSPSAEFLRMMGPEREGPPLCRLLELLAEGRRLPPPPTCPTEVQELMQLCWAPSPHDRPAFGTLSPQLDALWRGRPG
Experimental: THP1 cells were collected by centrifugation, resuspended with 1×HBSS, counted and diluted to a certain cell density. They were inoculated in a 384-well plate and cultured in a saturated humidity incubator with 37 °C and 5% CO2. The compound (DMSO final volume of 0.3%) was added to THP1 cells (10 doses in duplicates) and cultured in a saturated humidity incubator with 37 °C and 5% CO2. hIL-4 was added to stimulate cells and cultured in a saturated humidity incubator with 37 °C and 5% CO2. The lysis solution was added and incubated at room temperature. According to the instructions of AlphaLISA SureFire Ultra p-STAT6 detection kit, the lysis solution was transferred to pSTAT6 detection system, and the ALPHA signal was read by PE Envision microplate reader. The inhibition rate Inh%=((DMSO-sample)/(DMSO-background))×100 was calculated. IC50 was obtained by fitting with GraphPad Prism non-linear regression equation, and y=Bottom+(Top-Bottom)/(1+10^((LogIC50-x)×hillslope)), where x was the concentration of the compound and y was the inhibition rate.
JAK2_pSTAT5 was tesed in IL-3-induced BAF3 cells according to the above steps, and JAK3_pSTAT5 was tested in IL-2-induced CTLL-2 cells (without serum stimulation) according to the above steps.

TYK2 = TYK2 (Homo sapiens, UniProt P29597); assay: experiment of inhibiting kinase activity, TYK2; type: biochemical; conditions: read-out: inhibition rate TYK2; for inhibition at 0.01 µM: at 10 nM; for inhibition at 0.1 µM: at 100 nM
Chain of TYK2 (P29597 whole entry): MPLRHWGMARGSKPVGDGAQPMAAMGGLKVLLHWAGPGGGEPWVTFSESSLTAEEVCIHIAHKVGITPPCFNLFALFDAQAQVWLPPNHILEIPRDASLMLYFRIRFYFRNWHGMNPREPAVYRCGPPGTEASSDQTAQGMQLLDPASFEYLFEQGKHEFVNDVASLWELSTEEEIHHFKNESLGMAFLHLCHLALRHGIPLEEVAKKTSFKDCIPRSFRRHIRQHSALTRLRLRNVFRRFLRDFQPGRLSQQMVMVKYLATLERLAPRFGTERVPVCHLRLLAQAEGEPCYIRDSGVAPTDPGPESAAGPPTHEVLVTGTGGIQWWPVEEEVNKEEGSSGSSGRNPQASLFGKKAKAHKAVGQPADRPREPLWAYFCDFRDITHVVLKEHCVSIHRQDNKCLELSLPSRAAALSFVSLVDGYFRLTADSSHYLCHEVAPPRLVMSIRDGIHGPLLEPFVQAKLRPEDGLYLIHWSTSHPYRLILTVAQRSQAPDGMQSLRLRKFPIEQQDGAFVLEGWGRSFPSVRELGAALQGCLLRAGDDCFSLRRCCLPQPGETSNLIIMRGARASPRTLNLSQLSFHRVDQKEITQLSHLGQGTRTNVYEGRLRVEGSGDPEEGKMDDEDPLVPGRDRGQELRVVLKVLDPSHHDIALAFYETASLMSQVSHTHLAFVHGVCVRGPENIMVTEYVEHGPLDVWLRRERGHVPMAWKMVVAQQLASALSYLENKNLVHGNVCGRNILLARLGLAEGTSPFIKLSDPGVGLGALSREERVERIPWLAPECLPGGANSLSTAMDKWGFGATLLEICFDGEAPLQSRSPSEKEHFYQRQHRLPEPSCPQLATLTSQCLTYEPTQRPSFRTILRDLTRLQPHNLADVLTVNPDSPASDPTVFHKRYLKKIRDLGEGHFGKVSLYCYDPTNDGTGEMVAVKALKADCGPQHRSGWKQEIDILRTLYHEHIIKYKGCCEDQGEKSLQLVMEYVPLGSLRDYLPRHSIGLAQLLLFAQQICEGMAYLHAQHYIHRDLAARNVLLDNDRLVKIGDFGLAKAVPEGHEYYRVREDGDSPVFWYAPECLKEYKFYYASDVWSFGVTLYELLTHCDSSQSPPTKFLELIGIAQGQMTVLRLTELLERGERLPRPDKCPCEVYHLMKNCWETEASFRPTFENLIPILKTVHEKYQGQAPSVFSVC
Experimental: The inhibition rates of tested compounds on JAK1, JAK2, JAK3, TYK2, CDK7, CDK9, EGFR (T790M) and LRRK2 kinases were measured. The test concentrations of the compounds were 10 nM and 100 nM, and the detection was performed by replicate wells. Alternatively, compounds were 3-fold serial diluted from 10 µM for 10 concentrations in replicate wells.

T1 sequence (Q5S007 whole entry): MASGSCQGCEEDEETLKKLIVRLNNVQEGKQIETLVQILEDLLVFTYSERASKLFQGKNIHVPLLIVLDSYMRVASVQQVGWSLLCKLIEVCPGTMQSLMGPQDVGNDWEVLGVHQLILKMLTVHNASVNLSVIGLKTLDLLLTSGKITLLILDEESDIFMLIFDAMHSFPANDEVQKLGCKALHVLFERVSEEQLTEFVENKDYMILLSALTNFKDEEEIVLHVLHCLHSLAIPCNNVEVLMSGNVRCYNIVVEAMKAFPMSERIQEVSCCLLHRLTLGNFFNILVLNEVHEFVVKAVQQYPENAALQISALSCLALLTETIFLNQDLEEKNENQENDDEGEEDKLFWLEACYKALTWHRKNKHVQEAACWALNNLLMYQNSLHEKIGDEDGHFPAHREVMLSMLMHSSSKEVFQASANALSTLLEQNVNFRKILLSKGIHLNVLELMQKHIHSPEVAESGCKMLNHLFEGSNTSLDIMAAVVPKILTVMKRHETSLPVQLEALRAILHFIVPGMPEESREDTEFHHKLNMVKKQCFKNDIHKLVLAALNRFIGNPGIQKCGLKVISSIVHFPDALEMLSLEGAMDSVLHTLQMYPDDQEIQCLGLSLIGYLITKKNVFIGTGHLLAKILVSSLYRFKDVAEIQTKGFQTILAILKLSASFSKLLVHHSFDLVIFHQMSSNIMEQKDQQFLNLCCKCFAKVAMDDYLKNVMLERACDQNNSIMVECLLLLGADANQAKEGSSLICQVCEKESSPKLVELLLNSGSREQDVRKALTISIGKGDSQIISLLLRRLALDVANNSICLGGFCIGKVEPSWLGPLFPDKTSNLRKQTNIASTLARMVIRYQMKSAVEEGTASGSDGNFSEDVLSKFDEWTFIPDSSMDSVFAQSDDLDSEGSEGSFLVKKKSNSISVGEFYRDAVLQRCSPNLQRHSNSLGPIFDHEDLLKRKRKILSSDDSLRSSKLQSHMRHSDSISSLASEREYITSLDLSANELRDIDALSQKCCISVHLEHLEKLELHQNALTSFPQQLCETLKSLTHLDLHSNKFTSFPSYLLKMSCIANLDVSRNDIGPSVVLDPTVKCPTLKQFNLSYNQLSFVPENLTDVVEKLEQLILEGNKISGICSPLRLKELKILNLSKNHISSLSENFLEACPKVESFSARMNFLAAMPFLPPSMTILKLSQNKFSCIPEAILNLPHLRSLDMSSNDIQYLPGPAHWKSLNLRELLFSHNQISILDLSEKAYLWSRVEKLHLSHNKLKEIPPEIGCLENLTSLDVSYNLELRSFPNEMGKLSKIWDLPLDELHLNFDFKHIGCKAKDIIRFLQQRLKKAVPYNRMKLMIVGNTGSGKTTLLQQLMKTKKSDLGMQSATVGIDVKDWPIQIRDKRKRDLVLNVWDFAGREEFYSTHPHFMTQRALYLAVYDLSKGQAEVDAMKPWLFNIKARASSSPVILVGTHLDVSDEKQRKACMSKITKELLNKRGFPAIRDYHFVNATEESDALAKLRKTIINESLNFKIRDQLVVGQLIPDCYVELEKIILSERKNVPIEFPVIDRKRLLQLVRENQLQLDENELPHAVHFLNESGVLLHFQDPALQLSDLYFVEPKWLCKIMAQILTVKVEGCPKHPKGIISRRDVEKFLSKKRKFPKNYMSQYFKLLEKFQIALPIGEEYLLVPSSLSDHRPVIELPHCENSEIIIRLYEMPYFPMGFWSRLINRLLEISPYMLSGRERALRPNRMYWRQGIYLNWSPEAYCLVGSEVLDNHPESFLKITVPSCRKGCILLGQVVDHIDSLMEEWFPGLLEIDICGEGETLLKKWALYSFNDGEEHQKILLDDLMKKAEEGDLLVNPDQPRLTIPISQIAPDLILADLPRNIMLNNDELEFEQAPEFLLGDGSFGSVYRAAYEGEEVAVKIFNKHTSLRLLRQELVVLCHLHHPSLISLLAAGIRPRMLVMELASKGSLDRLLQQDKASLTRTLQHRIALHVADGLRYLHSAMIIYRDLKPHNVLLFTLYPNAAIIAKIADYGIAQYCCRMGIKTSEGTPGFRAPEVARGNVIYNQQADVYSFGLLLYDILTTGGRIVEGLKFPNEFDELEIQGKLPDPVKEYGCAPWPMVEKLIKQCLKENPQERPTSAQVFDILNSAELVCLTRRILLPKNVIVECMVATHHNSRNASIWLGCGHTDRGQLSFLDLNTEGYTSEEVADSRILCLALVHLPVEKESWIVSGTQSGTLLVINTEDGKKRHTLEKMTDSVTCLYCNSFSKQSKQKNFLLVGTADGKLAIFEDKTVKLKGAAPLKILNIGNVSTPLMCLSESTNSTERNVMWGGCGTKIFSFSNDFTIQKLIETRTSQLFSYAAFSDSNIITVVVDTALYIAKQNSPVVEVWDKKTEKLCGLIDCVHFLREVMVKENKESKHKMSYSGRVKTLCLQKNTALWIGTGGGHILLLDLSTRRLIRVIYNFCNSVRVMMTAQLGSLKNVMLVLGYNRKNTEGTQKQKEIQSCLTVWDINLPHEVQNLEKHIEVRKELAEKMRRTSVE

Row | EC50 (wild-type LRRK2) [nM] | EC50 (JAK3) [nM] | inhibition at 0.01 µM (TYK2) [%] | inhibition at 0.1 µM (TYK2) [%] | SMILES
1 | < 500 | < 50 |  |  | CCS(=O)(=O)N1CC(CC#N)(n2cc(-c3nc(Nc4ccc5c(c4)OCCN(C)CCO5)nc4[nH]ccc34)cn2)C1 [Example 28, 2-(1-(ethylsulfonyl)-3-(4-(2-((4-methyl-3,4,5,6-tetrahydro-2H-benzo[b][1,4,7]dioxazolin-9-yl)amino)-7H-pyrrolo[2,3-d]pytimidin-4-yl)-1H-pyrazol-1-yl)azetidin-3-yl) acetonitrile]
2 |  | 500 to 5000 | > 80 | > 80 | CN1CCOCCOc2cc(Nc3nc(-c4cnn(C(CC#N)C5CCCC5)c4)c4cc[nH]c4n3)ccc2OCC1 (stereo not shown) [Example 26, 3-cyclopentyl-3-(4-(2-((7-methyl-2,3,6,7,8,9-hexahydro-5H-benzo[b][1,4,7]trioxa[10]azacyclododecan-13-yl)amino)-7H-pyrrolo[2,3-d]pytimidin-4-yl)-1H-pyrazol-1-yl)propionitrile]
3 |  |  | 40 to 79 | > 80 | CN1CCOCCOc2cc(Nc3ncc(F)c(-c4ccc(C(=O)NCC#N)cc4)n3)ccc2OCC1 [Example 16, N-(cyanomethyl)-4-(5-fluoro-2-((7-methyl-2,3,6,7,8,9-hexahydro-5H-benzo[b][1,4,7]trioxa[10]azacyclododecan-13-yl)amino)pyrimidin-4-yl)benzamide]
